Data: EPA's ToxRefDB 2

Columns and labels:
rat [1] = details: Carcinogenicity; fischer; Oral; Gavage/Intubation; dose end: 103 week; group: systemic; systemic / pathology microscopic / kidney / nephropathy + systemic / pathology microscopic / liver / degeneration + systemic / pathology …
mouse [2] = details: Sub-acute repeat dose toxicity; b6c3f1; Oral; Gavage/Intubation; dose end: 16 day; group: systemic; systemic / in life observation / clinical signs / altered breathing rate + systemic / in life observation / clinical signs / ataxia + …
mouse [3] = details: Subchronic oral toxicity in rodents, b6c3f1, Gavage/Intubation, dose end: 13 week, group: systemic
rat [4] = details: Sub-acute repeat dose toxicity; fischer; Oral; Gavage/Intubation; dose end: 16 day; group: systemic; systemic / in life observation / clinical signs / altered breathing rate + systemic / in life observation / clinical signs / ataxia + …
rat [5] = details: Subchronic oral toxicity in rodents, fischer, Gavage/Intubation, dose end: 13 week, group: systemic
rat [6] = details: Chronic toxicity, sprague dawley, Oral, Feed, dose end: 110 week
mouse [7] = details: Chronic toxicity, cd1, Oral, Feed, dose end: 109 week, group: systemic
mouse [8] = details: Carcinogenicity, b6c3f1, Oral, Gavage/Intubation, dose end: 103 week, group: systemic
primate [9] = details: Sub-acute repeat dose toxicity, Injection, Intravenous, dose end: 14 day, group: systemic
rabbit = details: Prenatal developmental toxicity study, Oral, Gavage/Intubation, dose end: 19 GD, group: maternal
rat [10] = details: Fertility (Segment I); Oral; Gavage/Intubation; dose end: 1 generation; group: parental; systemic / in life observation / body weight / body weight gain + systemic / in life observation / food consumption / food consumption
rat [11] = details: Sub-acute repeat dose toxicity; wistar; Injection; Intravenous; dose end: 14 day; group: systemic; systemic / in life observation / clinical signs / skin discoloration + systemic / pathology microscopic / skin / inflammation + systemic / …
rat [12] = details: Sub-acute repeat dose toxicity, wistar, Oral, Gavage/Intubation, dose end: 14 day, group: systemic
primate [13] = details: Chronic toxicity, Oral, Gavage/Intubation, dose end: 182 day, group: systemic
rat [14] = details: Sub-acute repeat dose toxicity, wistar, Oral, Feed, dose end: 14 day, group: systemic
[15] = systemic / organ weight / liver / absolute + systemic / organ weight / liver / relative to body weight + systemic / pathology microscopic / …
[16] = group: cholinesterase, cholinesterase / cholinesterase / cholinesterase / plasma cholinesterase (che)
[17] = group: systemic, systemic / clinical chemistry / cholesterol / cholesterol
[18] = group: systemic, systemic / clinical chemistry / cholesterol / cholesterol + systemic / clinical chemistry / glucose / glucose + systemic / clinical …
[19] = systemic / organ weight / liver / nos
[20] = systemic / pathology microscopic / liver / eosinophilic focus + systemic / pathology microscopic / liver / syncytial alteration
[21] = systemic / pathology microscopic / liver / eosinophilic focus + systemic / pathology microscopic / liver / syncytial alteration + systemic…
[22] = systemic / clinical chemistry / albumin / albumin + systemic / clinical chemistry / globulins / globulins + systemic / clinical chemistry / …
[23] = systemic / hematology / hematocrit (hct) / hematocrit (hct) + systemic / in life observation / body weight / body weight + systemic / in …
[24] = reproductive / reproductive performance / aborted / aborted + systemic / in life observation / body weight / body weight + systemic / in …
[25] = systemic / hematology / hematocrit (hct) / hematocrit (hct) + systemic / hematology / hemoglobin (hgb) / hemoglobin (hgb) + systemic / …
[26] = systemic / clinical chemistry / protein / protein + systemic / hematology / red blood cell distribution width (rdw) / red blood cell …
[27] = systemic / pathology gross / lymph node / enlarged + systemic / in life observation / clinical signs / salivation + systemic / in life …
[28] = systemic / hematology / [other] / [other] + systemic / hematology / erythrocyte (rbc) count differential / erythrocyte (rbc) + systemic / …
[29] = systemic / hematology / erythrocyte (rbc) count differential / erythrocyte (rbc) + systemic / hematology / hematocrit (hct) / hematocrit (…

SMILES: O=c1ccc2ccccc2o1 [Coumarin]
- LEL (rat [1]): 25 mg/kg/day
- LOAEL (rat [1]): 25 mg/kg/day
- NEL (rat [1]): < 25 mg/kg/day
- NOAEL (rat [1]): < 25 mg/kg/day
- LEL (mouse [2]): 300 mg/kg/day
- LOAEL (mouse [2]): 300 mg/kg/day
- NEL (mouse [2]): 150 mg/kg/day
- NOAEL (mouse [2]): 150 mg/kg/day
- LEL (mouse [3]; systemic / hematology / mean corpuscular (cell) volume (mcv) / mean corpuscular (cell) volume (mcv) + systemic / hematology / mean …): 38 mg/kg/day
- NEL (mouse [3]; systemic / in life observation / body weight / body weight + systemic / in life observation / body weight / body weight gain + systemic / …): 19 mg/kg/day
- LOAEL (mouse [3]; [15]): 300 mg/kg/day
- NOAEL (mouse [3]; [15]): 150 mg/kg/day
- LEL (rat [4]): 400 mg/kg/day
- LOAEL (rat [4]): > 400 mg/kg/day
- NEL (rat [4]): 200 mg/kg/day
- NOAEL (rat [4]): ≥ 400 mg/kg/day
- LEL (rat [5]; systemic / hematology / erythrocyte (rbc) count differential / erythrocyte (rbc) + systemic / hematology / mean corpuscular (cell) volume (…): 75 mg/kg/day
- LOAEL (rat [5]; [15]): 150 mg/kg/day
- NEL (rat [5]; [15]): 38 mg/kg/day
- NOAEL (rat [5]; [15]): 75 mg/kg/day
- LEL (rat [6]; [16]): 16 mg/kg/day
- LOAEL (rat [6]; [16]): > 283 mg/kg/day
- NEL (rat [6]; [16]): < 16 mg/kg/day
- NOAEL (rat [6]; [16]): ≥ 283 mg/kg/day
- LEL (rat [6]; [17]): 13 mg/kg/day
- NEL (rat [6]; [17]): < 13 mg/kg/day
- LOAEL (rat [6]; [18]): > 234 mg/kg/day
- NOAEL (rat [6]; [18]): ≥ 234 mg/kg/day
- LEL (mouse [7]; systemic / in life observation / body weight / body weight gain): 85.8 mg/kg/day
- NEL (mouse [7]; systemic / in life observation / body weight / body weight gain + systemic / in life observation / food consumption / food efficiency): 26.2 mg/kg/day
- LOAEL (mouse [7]; [19]): > 271 mg/kg/day
- NOAEL (mouse [7]; [19]): ≥ 271 mg/kg/day
- LOAEL (mouse [8]; [20]): 50 mg/kg/day
- NOAEL (mouse [8]; [20]): < 50 mg/kg/day
- LEL (mouse [8]; [21]): 50 mg/kg/day
- NEL (mouse [8]; [21]): < 50 mg/kg/day

SMILES: CCC(C)C(NC(=O)c1ccccc1SSc1ccccc1C(=O)NC(C(=O)O)C(C)CC)C(=O)O (centres undefined) [CI-1012]
- LEL (primate [9]; [22]): 75 mg/kg/day
- NEL (primate [9]; [22]): 25 mg/kg/day
- LOAEL (primate [9]; [23]): > 125 mg/kg/day
- NOAEL (primate [9]; [23]): ≥ 125 mg/kg/day
- LOAEL (rabbit; [24]): > 250 mg/kg/day
- NEL (rabbit; [24]): 25 mg/kg/day
- NOAEL (rabbit; [24]): ≥ 250 mg/kg/day
- LEL (rabbit; reproductive / reproductive performance / aborted / aborted + systemic / in life observation / body weight / body weight gain + systemic / …): 100 mg/kg/day
- LEL (rat [10]): 100 mg/kg/day
- LOAEL (rat [10]): > 500 mg/kg/day
- NEL (rat [10]): 50 mg/kg/day
- NOAEL (rat [10]): ≥ 500 mg/kg/day
- LEL (rat [11]): 25 mg/kg/day
- LOAEL (rat [11]): > 100 mg/kg/day
- NEL (rat [11]): < 25 mg/kg/day
- NOAEL (rat [11]): ≥ 100 mg/kg/day
- LOAEL (rat [12]; [25]): > 1500 mg/kg/day
- NEL (rat [12]; [25]): 100 mg/kg/day
- NOAEL (rat [12]; [25]): ≥ 1500 mg/kg/day
- LEL (rat [12]; systemic / organ weight / spleen / absolute + systemic / pathology microscopic / stomach / hyperplasia): 250 mg/kg/day
- LOAEL (primate [13]; [26]): > 250 mg/kg/day
- NOAEL (primate [13]; [26]): ≥ 250 mg/kg/day
- LEL (primate [13]; [27]): 50 mg/kg/day
- NEL (primate [13]; [27]): < 50 mg/kg/day
- LOAEL (rat [14]; [28]): > 1500 mg/kg/day
- NOAEL (rat [14]; [28]): ≥ 1500 mg/kg/day
- LEL (rat [14]; [29]): 250 mg/kg/day
- NEL (rat [14]; [29]): 100 mg/kg/day
